Test results taken from patent US9902736B2, “1-oxo/acylation-14-acylated oridonin derivative, preparation method therefor and application thereof” (HANGZHOU BENSHENG PHARMACEUTICAL CO., LTD., priority 2012, dated 2018).
≈ marks a conversion by molar mass, not a printed value. Where two headings read alike, the source gives them in different places.

Legend:
H9 = test: Leukemia cell growth inhibition, MTT, 72 h; assay type: cell-based, human; details: for IC50 / IC90: Homo sapiens, H9, 72 h, MTT
Summary of the method: (§1)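 Cells (6000 per well) are plated and treated the following day with the derivatives across a concentration range. After 72 hours at 37° C in 5% CO2, viability is determined by MTT. The K562/ADR line is drug-resistant.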

Jurkat = test: Leukemia cell growth inhibition, MTT, 72 h; assay type: cell-based, human; details: Homo sapiens, Jurkat; 72 h, MTT
Summary of the method: as §1

NB4 = test: Leukemia cell growth inhibition, MTT, 72 h; assay type: cell-based, human; details: for IC50 / IC90: Homo sapiens, NB-4, 72 h, MTT
Summary of the method: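 Viability determined by MTT following a 72-hour, 37° C, 5% CO2 incubation with test compounds at different concentrations, added the day after seeding 6000 cells per well.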

Hep G2 = test: Solid tumor cell growth inhibition, MTT, 72 h; assay type: cell-based; details: Homo sapiens, HepG2
Summary of the method: (§2)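 Seed 6000 cells per well in high-glucose DMEM supplemented with 10% fetal bovine serum. Incubate 24 hours at 37° C, 5% CO2. Add compound dilutions, mix, return to the same conditions, then measure viable cells.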

PC-3 = test: Solid tumor cell growth inhibition, MTT, 72 h; assay type: cell-based; details: Homo sapiens
Summary of the method: as §2

U87-MG = test: Solid tumor cell growth inhibition, MTT, 72 h; assay type: cell-based; details: Homo sapiens, U-87 MG
Summary of the method: as §2

A549 = test: Solid tumor cell growth inhibition, MTT, 72 h; assay type: cell-based; details: Homo sapiens
Summary of the method: as §2

MG-63 = test: Solid tumor cell growth inhibition, MTT, 72 h; assay type: cell-based; details: Homo sapiens
Summary of the method: as §2

CaEs-17 = test: Solid tumor cell growth inhibition, MTT, 72 h; assay type: cell-based; details: Homo sapiens, CaEs17
Summary of the method: as §2

SK-OV-3 = test: Solid tumor cell growth inhibition, MTT, 72 h; assay type: cell-based; details: Homo sapiens; for IC50: read-out: IC50 SK-OV-3; for IC90: read-out: IC90 SK-OV-3
Summary of the method: as §2

PANC-1 = test: Solid tumor cell growth inhibition, MTT, 72 h; assay type: cell-based; details: Homo sapiens
Summary of the method: as §2

RKO = test: Solid tumor cell growth inhibition, MTT, 72 h; assay type: cell-based; details: Homo sapiens
Summary of the method: as §2

Becap-37 = test: Solid tumor cell growth inhibition, MTT, 72 h; assay type: cell-based; details: Homo sapiens
Summary of the method: as §2

CNE = test: Solid tumor cell growth inhibition, MTT, 72 h; assay type: cell-based, human; details: for IC50 / IC90: Homo sapiens, CNE, 72 h, MTT
Summary of the method: as §2

MGC-803 = test: Solid tumor cell growth inhibition, MTT, 72 h; assay type: cell-based, human; details: for IC50 / IC90: Homo sapiens, MGC-803, 72 h, MTT; for anti-MGC-803 activity increased: in comparison with oridonin
Summary of the method: as §2

Hela = test: Solid tumor cell growth inhibition, MTT, 72 h; assay type: cell-based, human; details: for IC50 / IC90: Homo sapiens, HeLa, 72 h, MTT
Summary of the method: as §2

Hep-2 = test: Solid tumor cell growth inhibition, MTT, 72 h; assay type: cell-based, human; details: for IC50 / IC90: Homo sapiens, HEp-2, 72 h, MTT; for anti-Hep-2 activity increased: in comparison with oridonin
Summary of the method: as §2

RPMI 8226 = test: Multiple myeloma cell growth inhibition, MTT, 72 h; assay type: cell-based; details: Homo sapiens
Summary of the method: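 Growth inhibition by MTT after 72 h drug exposure (37 °C, 5% CO2) over a concentration range of oridonin derivatives. RPMI 8226 cells plated at 6000 per well and dosed the following day.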

Kasumi-1 = test: Leukemia cell growth inhibition, MTT, 72 h; assay type: cell-based; details: Homo sapiens
Summary of the method: as §1

K562/ADR = test: Leukemia cell growth inhibition, MTT, 72 h; assay type: cell-based; details: Homo sapiens
Summary of the method: as §1

C=C1C(=O)[C@]23[C@H](OC(=O)c4ccc(C)cc4)[C@H]1CC[C@H]2[C@@]12CO[C@@]3(O)[C@@H](O)[C@@H]1C(C)(C)CCC2OC(C)=O (stereo partly shown) [BS-OR-090]
IC50 (H9): 0.06 µg/mL (≈ 0.114 µM) | IC90 (H9): 0.37 µg/mL (≈ 0.705 µM) | anti-H9 cell line activity increased (H9; as compared with oridonin): 22 fold | IC50 (Jurkat): 0.4 µg/mL (≈ 0.762 µM) | IC90 (Jurkat): 2.62 µg/mL (≈ 4.99 µM) | IC50 (NB4): 0.05 µg/mL (≈ 0.0953 µM) | IC90 (NB4): 0.94 µg/mL (≈ 1.79 µM) | anti-NB4 cell line activity increased (NB4; as compared with oridonin): 15 fold | IC50 (Hep G2): 0.74 µg/mL (≈ 1.41 µM) | IC90 (Hep G2): 7.09 µg/mL (≈ 13.5 µM) | IC50 (PC-3): 1.35 µg/mL (≈ 2.57 µM) | IC90 (PC-3): 5.37 µg/mL (≈ 10.2 µM) | IC50 (U87-MG): 0.51 µg/mL (≈ 0.972 µM) | IC90 (U87-MG): 1.67 µg/mL (≈ 3.18 µM) | IC50 (A549): 1.82 µg/mL (≈ 3.47 µM) | IC90 (A549): 6.27 µg/mL (≈ 12 µM) | IC50 (MG-63): 0.36 µg/mL (≈ 0.686 µM) | IC90 (MG-63): 0.92 µg/mL (≈ 1.75 µM) | IC50 (CaEs-17): 0.9 µg/mL (≈ 1.72 µM) | IC90 (CaEs-17): 3.65 µg/mL (≈ 6.96 µM) | IC50 (SK-OV-3; SK-OV-3, 72 h): 1.35 µg/mL (≈ 2.57 µM) | IC90 (SK-OV-3; SK-OV-3, 72 h): 5.37 µg/mL (≈ 10.2 µM) | IC50 (PANC-1): 1.31 µg/mL (≈ 2.5 µM) | IC90 (PANC-1): 4.41 µg/mL (≈ 8.41 µM) | IC50 (RKO): 0.35 µg/mL (≈ 0.667 µM) | IC90 (RKO): 0.88 µg/mL (≈ 1.68 µM) | IC50 (Becap-37): 0.99 µg/mL (≈ 1.89 µM) | IC90 (Becap-37): 3.01 µg/mL (≈ 5.74 µM) | IC50 (CNE): 0.98 µg/mL (≈ 1.87 µM) | IC90 (CNE): 4.59 µg/mL (≈ 8.75 µM) | anti-CNE activity increased (CNE; in comparison with oridonin): ~6 fold | IC50 (MGC-803): 0.52 µg/mL (≈ 0.991 µM) | IC90 (MGC-803): 6.3 µg/mL (≈ 12 µM) | anti-MGC-803 activity increased (MGC-803): ~10 fold | IC50 (Hela): 0.96 µg/mL (≈ 1.83 µM) | IC90 (Hela): 3.67 µg/mL (≈ 7 µM) | anti-Hela activity increased (Hela; in comparison with oridonin): more than 5 fold | IC50 (Hep-2): 0.96 µg/mL (≈ 1.83 µM) | IC90 (Hep-2): 5.71 µg/mL (≈ 10.9 µM) | anti-Hep-2 activity increased (Hep-2): ~5 fold | IC50 (RPMI 8226): 0.2 µg/mL (≈ 0.381 µM) | IC90 (RPMI 8226): 1.61 µg/mL (≈ 3.07 µM) | IC50 (Kasumi-1): 0.37 µg/mL (≈ 0.705 µM) | IC90 (Kasumi-1): 1.3 µg/mL (≈ 2.48 µM) | IC50 (K562/ADR): 0.36 µg/mL (≈ 0.686 µM) | IC90 (K562/ADR): 1.48 µg/mL (≈ 2.82 µM)

C=C1C(=O)[C@]23[C@H](OC(=O)c4ccc(OC)cc4)[C@H]1CC[C@H]2[C@@]12CO[C@@]3(O)[C@@H](O)[C@@H]1C(C)(C)CCC2OC(C)=O (stereo partly shown) [BS-OR-091]
IC50 (H9): 0.14 µg/mL (≈ 0.259 µM) | IC90 (H9): 0.46 µg/mL (≈ 0.851 µM) | IC50 (Jurkat): 0.55 µg/mL (≈ 1.02 µM) | IC90 (Jurkat): 2.31 µg/mL (≈ 4.27 µM) | IC50 (NB4): 0.13 µg/mL (≈ 0.24 µM) | IC90 (NB4): 0.73 µg/mL (≈ 1.35 µM) | IC50 (Hep G2): 1.4 µg/mL (≈ 2.59 µM) | IC90 (Hep G2): 6.28 µg/mL (≈ 11.6 µM) | IC50 (PC-3): 1.75 µg/mL (≈ 3.24 µM) | IC90 (PC-3): 4.71 µg/mL (≈ 8.71 µM) | IC50 (U87-MG): 0.67 µg/mL (≈ 1.24 µM) | IC90 (U87-MG): 1.98 µg/mL (≈ 3.66 µM) | IC50 (A549): 2.38 µg/mL (≈ 4.4 µM) | IC90 (A549): 7.54 µg/mL (≈ 13.9 µM) | IC50 (MG-63): 0.49 µg/mL (≈ 0.906 µM) | IC90 (MG-63): 1.46 µg/mL (≈ 2.7 µM) | IC50 (CaEs-17): 0.99 µg/mL (≈ 1.83 µM) | IC90 (CaEs-17): 4.83 µg/mL (≈ 8.93 µM) | IC50 (SK-OV-3; SK-OV-3, 72 h, MTT): 1.75 µg/mL (≈ 3.24 µM) | IC90 (SK-OV-3; SK-OV-3, 72 h, MTT): 4.71 µg/mL (≈ 8.71 µM) | IC50 (PANC-1): 1.69 µg/mL (≈ 3.13 µM) | IC90 (PANC-1): 5.65 µg/mL (≈ 10.5 µM) | IC50 (RKO): 0.41 µg/mL (≈ 0.758 µM) | IC90 (RKO): 0.93 µg/mL (≈ 1.72 µM) | IC50 (Becap-37): 1.26 µg/mL (≈ 2.33 µM) | IC90 (Becap-37): 2.48 µg/mL (≈ 4.59 µM) | IC50 (CNE): 1.18 µg/mL (≈ 2.18 µM) | IC90 (CNE): 4.52 µg/mL (≈ 8.36 µM) | IC50 (MGC-803): 0.59 µg/mL (≈ 1.09 µM) | IC90 (MGC-803): 5.7 µg/mL (≈ 10.5 µM) | anti-MGC-803 activity increased (MGC-803): ~10 fold | IC50 (Hela): 1.28 µg/mL (≈ 2.37 µM) | IC90 (Hela): 3.51 µg/mL (≈ 6.49 µM) | IC50 (Hep-2): 0.96 µg/mL (≈ 1.78 µM) | IC90 (Hep-2): 6.65 µg/mL (≈ 12.3 µM) | anti-Hep-2 activity increased (Hep-2): ~5 fold | IC50 (RPMI 8226): 0.37 µg/mL (≈ 0.684 µM) | IC90 (RPMI 8226): 1.8 µg/mL (≈ 3.33 µM) | IC50 (Kasumi-1): 0.52 µg/mL (≈ 0.962 µM) | IC90 (Kasumi-1): 1.22 µg/mL (≈ 2.26 µM) | IC50 (K562/ADR): 0.45 µg/mL (≈ 0.832 µM) | IC90 (K562/ADR): 1.72 µg/mL (≈ 3.18 µM)
